Data set [1] relates to flies (family Muscidae). Put plainly: Oviposition inhibition tests (treated fly food; Examples 6-9). Format: in vivo. Here is the method:
The compound to be tested was administered in a standard fly food containing 6 parts of sugar, 6 parts of powdered non-fat dry milk, and 1 part of powdered egg yolk. Treated food was prepared by mixing an appropriate amount of a solution or suspension of CBCP in acetone with a batch of the food. The acetone was evaporated (4-6 hours) and the dry material was repulverized. Oviposition inhibition tests: Samples of treated food with a container of water were placed in cages containing 100 newly-emerged adult flies (family Muscidae). After the flies had been exposed to the treated diet for 6-7 days, 1/2 inch of moist standard fly larva-rearing medium (CSMA) in souffle cups was placed in the cages for oviposition. After 4-6 hours, the cup was removed and examined for eggs. […] The procedure outlined in Example 6 was followed using a Group II compound. The procedure outlined in Example 6 was followed using Group III compounds. The results are summarized below: The procedure outlined in Example 6 was followed substituting a Group IV compound for those of Group I. The table below provides a summary of results.

Data set [2] has as its system flies (family Muscidae). Put plainly: Chemosterilancy tests (egg hatch and pupal development; Examples 6-9). Format: in vivo. The method, then: (§1) The compound to be tested was administered in a standard fly food containing 6 parts of sugar, 6 parts of powdered non-fat dry milk, and 1 part of powdered egg yolk. Treated food was prepared by mixing an appropriate amount of a solution or suspension of CBCP in acetone with a batch of the food. The acetone was evaporated (4-6 hours) and the dry material was repulverized.
Chemosterilancy tests: If eggs were laid in the above tests, the cups were filled with water and stirred to break up the egg masses. A random sample of 100 eggs from each cup was collected and placed on a small piece of black cloth which was then laid on top of moist larva-rearing medium in a rearing container. Observations were made to determine percentage of egg hatch and pupal development.
The procedure outlined in Example 6 was followed using a Group II compound.
The procedure outlined in Example 6 was followed using Group III compounds. The results are summarized below:
The procedure outlined in Example 6 was followed substituting a Group IV compound for those of Group I. The table below provides a summary of results.

Data set [3] has as its system male flies (family Muscidae). The data set is described as follows: Sterilization of treated males crossed with virgin untreated females. It is filed as in vivo. The method, then:
as §1
These flies were maintained on untreated fly food. After 5 days, cups containing the larval-rearing medium was provided as previously described and a 100-egg sample was collected and place on moist larve-rearing medium. About a week after oviposition, examination was made to determine the percentage of hatched eggs and of pupae developed.

The test system of data set [4] is early fourth-stage larvae of the common malaria mosquito (Anopheles quadrimaculatus). The data set is described as follows: Growth-inhibition tests on mosquito larvae. As to conditions: in water; corrected by Abbott's formula. Format: in vivo. The method, then: The compound to be tested was added to one liter of water until the final concentration thereof was a growth-inhibiting amount. Fifty early fourth-stage larvae of the common malaria mosquito (Anopheles quadrimaculatus) were placed on this water. Larval food was administered daily. Dead larvae and pupae were removed, counted, and discarded daily. Live pupae were removed, rinsed, and transferred to a cup of distilled water. The cup was placed in an emergence cage, and the emerging adults, if any, were maintained on a sugar-water diet.
The effectiveness of the compound in inhibiting growth was determined by adding the number of dead larvae and pupae and the number of adults that were dead, unable to complete eclosion, and malformed. This sum was corrected by Abbott's formula (to adjust for the number of larvae or pupae which would die naturally) and designated as the GI (growth inhibition). The results are expressed as GI-90, i.e., the concentration of growth inhibitor in ppm that would prevent and/or retard growth in 90% of the treated larvae.

In another data set the test system is screwworm flies. The data set is described as follows: Anti-procreant tests on screw-worm fly. It is filed as in vivo. As to conditions: 0.10% in food. The method, then: These tests were conducted on mass-reared screwworm flies which had been obtained as pupae from the screwworm fly plant at Mission, Texas. The flies were held in cages with water and undiluted corn syrup in a colony room maintained at about 27° C. and 60% relative humidity (RH) with a 12-hour photoperiod beginning at 6 a.m. Adults that emerged were lightly anesthetized with CO2 for ease of manipulation the same day.
The mixtures obtained were fed to the flies in "Dixie" paper cups, 7 cm diameter, and rice hulls were placed on the surface of the food to prevent the flies from getting stuck in the viscous mixture.
Initially, varying concentrations of a chemosterilant were fed to the flies for the first 5 days of life. Thereafter, the chemosterilant was replaced with pure corn syrup. On the 7th day, 3 replicates of 10 flies were stimulated to oviposit and the flies which oviposited were checked for insemination by an examination of the spermathecae for live sperms. The total number of eggs per fly was estimated and the hatchability of these eggs (fertility) was determined 24 hours later (at 37° C.). Observations were made to determine percentage of egg hatch.

Data set [5] has as its system Salmonella tester strains TA-100, TA-98, TA-1537. The data set is described as follows: Ames' Salmonella/microsome mutagenicity procedure. Particulars: for mutagenic activity: TA-100, TA-98, TA-1537, without or with metabolic activation. Here is the method:
The mutagenic activity of D, A, B, M, N, and CC were tested by the standard Ames' Salmonella/microsome procedure, which is reported to show better than 90% correlation with development of mammalian cancers (Ames et al., Mutation Research, Vol. 31, p. 347, 1975; McCann et al., Proc. Nat. Acad. Sci., Vol. 72, p. 5135, 1975). Tester strains TA-100, TA-98, TA-1537 and the plate test method were used, employing concentrations of 10, 100, 1000, and 10,000 […]. The metabolic activation mixture (S-9 mix) used the 9000 times g supernatant of Arochlor-1254-induced rat liver homogenate at a level of 100 μl per ml of S-9 mix.

A short description of the next data set: Solubility in water. Format: physicochemical.
The next data set can be described thus: Oral toxicity in mice. As to conditions: mouse, in vivo; oral, mice; read-out: Estimated LD50. Here is the method: (§2) Compounds D, A, and B were also assayed for oral toxicity in mice.
Another data set relates to mice. The data set is described as follows: Oral toxicity in mice. As to conditions: mouse, in vivo, po. Here is the method: as §2

For orientation: LD50 means the dose expected to kill half of the subjects tested.

For `CCCOc1cc2c(cc1C(C)c1ccc(OC)cc1)OCO2` (stereo not drawn) [I, (α-Methyl-4-methoxybenzyl)-3,4-methylenedioxy-6-n-propoxybenzene], the “Mortality, parent generation” value in the data set with flies (family Muscidae) [1] (0.01% in food), in the data set on flies (family Muscidae) [1] (0.025% in food) and with flies (family Muscidae) [1] (1.0% in food) was 0% throughout. Moreover, the Egg hatch came out at 63% with flies (family Muscidae) [2] (0.01% in food) and 38% in the data set on flies (family Muscidae) [2] (0.025% in food). Further, the Pupal development came out at 63% in the data set on flies (family Muscidae) [2] (0.01% in food) and 38% in the data set on flies (family Muscidae) [2] (0.025% in food). In data set [3] (1.0% in food), this compound showed a sterilization of males of 100%. In addition, the “GI-90 (concentration of growth inhibitor that would prevent and/or retard growth in 90% of the treated larvae)” value in data set [4] is given as 0.042 ppm.

`C=CCc1cc2c(cc1Cc1ccc(OC)cc1)OCO2` [CC, (4-Methoxybenzyl)-3,4-methylenedioxy-6-(2-propenyl)benzene]: the “Mortality, parent generation” value is given as 0% in the data set with flies (family Muscidae) [1] (0.01% in food); 0% in the data set with flies (family Muscidae) [1] (0.025% in food); 0% in the data set with flies (family Muscidae) [1] (0.05% in food); 0% in the data set with flies (family Muscidae) [1] (0.1% in food); 50% in the data set with flies (family Muscidae) [1] (0.25% in food). The Egg hatch in the data set with flies (family Muscidae) [2] (0.01% in food) is on record as 15%; in the data set on flies (family Muscidae) [2] (0.025% in food), 0%. For the same compound, the Pupal development in the data set with flies (family Muscidae) [2] (0.01% in food) came out at 15%; with flies (family Muscidae) [2] (0.025% in food), 0%. Further, in [4], the “GI-90 (concentration of growth inhibitor that would prevent and/or retard growth in 90% of the treated larvae)” value is recorded as 0.2 ppm. This compound also registered an Inhibition of embryogenesis in the data set with screwworm flies of 100%. In the data set with screwworm flies, this compound showed an Oviposition of 65.0%. Also, the “Survival, Female” value with screwworm flies was 92.7%. Moreover, the “Survival, Male” value in the data set with screwworm flies was found to be 45.0%. Besides, the mutagenic activity entry in data set [5] is on record as “non-mutagenic”. In the data set “Solubility in water”, the solubility in water result is listed as “low solubility in water”.

Take `COc1ccc(C(C)c2cc(C(C)(C)C)cc(C(C)(C)C)c2O)cc1` (stereo not drawn) [B, 4,6-di-t-butyl-2-(α-methyl-4-methoxybenzyl)phenol]: the “Mortality, parent generation” value with flies (family Muscidae) [1] (0.25% in food), in the data set with flies (family Muscidae) [1] (0.5% in food) and with flies (family Muscidae) [1] (1.0% in food) was 0% in each case. For the same compound, the Egg hatch stood at 18% in the data set on flies (family Muscidae) [2] (0.25% in food), 0% with flies (family Muscidae) [2] (0.5% in food) and 0% in the data set with flies (family Muscidae) [2] (1.0% in food). Further, the Pupal development in the data set with flies (family Muscidae) [2] (0.25% in food) is on record as 18%; with flies (family Muscidae) [2] (0.5% in food), 0%; in the data set with flies (family Muscidae) [2] (1.0% in food), 0%. For the same compound, the mutagenic activity result in [5] is “non-mutagenic”. Besides, the LD50 in the data set “Oral toxicity in mice” was 3550 mg/kg. Further, the “oral toxicity (in words)” value in the data set with mice is reported as “only slightly toxic”.

Turning to `CCCOc1cc2c(cc1Cc1ccc(OC)cc1)OCO2` [N, (4-Methoxybenzyl)-3,4-methylenedioxy-6n-propoxybenzene], the “Mortality, parent generation” value is on record as 0% in the data set on flies (family Muscidae) [1] (0.05% in food), 0% in the data set with flies (family Muscidae) [1] (0.1% in food) and 75% with flies (family Muscidae) [1] (0.25% in food). Moreover, the Egg hatch came to 33% with flies (family Muscidae) [2] (0.05% in food) and 0% with flies (family Muscidae) [2] (0.1% in food). The values for the Pupal development in the data set with flies (family Muscidae) [2] (0.05% in food) and in the data set with flies (family Muscidae) [2] (0.1% in food) were 33% and 0%, respectively. Also, the mutagenic activity result in data set [5] is given as “non-mutagenic”.

On to `CCOc1cc2c(cc1Cc1ccc(OC)cc1)OCO2` [M, (4-Methoxybenzyl)-3,4-methylenedioxy-6-ethoxybenzene], for which the “Mortality, parent generation” value with flies (family Muscidae) [1] (0.01% in food), in the data set with flies (family Muscidae) [1] (0.025% in food), with flies (family Muscidae) [1] (0.05% in food) and in the data set on flies (family Muscidae) [1] (0.1% in food) was 0% in each case. Also, the Egg hatch in the data set on flies (family Muscidae) [2] (0.01% in food) is reported as 19%; with flies (family Muscidae) [2] (0.025% in food) it was 0%; in the data set with flies (family Muscidae) [2] (0.05% in food), 0%. Further, the Pupal development in the data set on flies (family Muscidae) [2] (0.01% in food) is on record as 19%; in the data set on flies (family Muscidae) [2] (0.025% in food), 0%; with flies (family Muscidae) [2] (0.05% in food) it was 0%. The Inhibition of embryogenesis in the data set with screwworm flies stood at 99.8%. The compound also came in with an Oviposition in the data set with screwworm flies of 55.0%. For the same compound, the “Survival, Female” value in the data set with screwworm flies came out at 88.7%. For the same compound, the “Survival, Male” value with screwworm flies is listed as 35.0%. The revertant frequencies result in data set [5] (10-10,000 μg/plate in TA-100 and S-9) is given as “exceeded the mean control value plus two or three standard deviations”. Besides, the “mutagenic response relative to known mutagenic agents which revert this strain” value in data set [5] (TA-100 and S-9) is listed as “extremely weak”. The solubility in water result in the data set “Solubility in water” is “low solubility in water”.

For the compound `COc1ccc(Cc2cc(C(C)(C)C)cc(C(C)(C)C)c2O)cc1` [C, 4,6-Di-t-butyl-2-(4-methoxybenzyl)phenol], the “Mortality, parent generation” value in the data set on flies (family Muscidae) [1] (0.01% in food), with flies (family Muscidae) [1] (0.025% in food), in the data set on flies (family Muscidae) [1] (0.05% in food), with flies (family Muscidae) [1] (0.1% in food), with flies (family Muscidae) [1] (0.25% in food) and in the data set on flies (family Muscidae) [1] (0.5% in food) was 0% each time. Further, in the data set on flies (family Muscidae) [1] (1.0% in food), the “Mortality, parent generation” value was found to be 0%. The Oviposition result in the data set with flies (family Muscidae) [1] (0.25% in food) is on record as “Normal”; with flies (family Muscidae) [1] (0.5% in food), “None”; with flies (family Muscidae) [1] (1.0% in food) it was “None”; in the data set on screwworm flies, 75.0%. Moreover, the Egg hatch in the data set with flies (family Muscidae) [2] (0.01% in food) is 45%; with flies (family Muscidae) [2] (0.025% in food), 0%; in the data set with flies (family Muscidae) [2] (0.05% in food) it was 0%; in the data set on flies (family Muscidae) [2] (0.1% in food), 0%; with flies (family Muscidae) [2] (0.25% in food), 0%. Besides, the Pupal development in the data set with flies (family Muscidae) [2] (0.01% in food) worked out at 45%; in the data set with flies (family Muscidae) [2] (0.025% in food), 0%; with flies (family Muscidae) [2] (0.05% in food) it was 0%; in the data set on flies (family Muscidae) [2] (0.1% in food) it was 0%; in the data set on flies (family Muscidae) [2] (0.25% in food), 0%. This compound also returned a sterilization of males in [3] (0.25% in food) of 100%. Moreover, the Inhibition of embryogenesis in the data set with screwworm flies amounted to 100%. Besides, the “Survival, Female” value with screwworm flies amounted to 66.0%. Also, in the data set on screwworm flies, the “Survival, Male” value is 63.0%. Besides, the solubility in water result in the data set “Solubility in water” is reported as “low solubility in water”.

The values above are taken from patent US4357344A, “Polybutylbenzylphenols and benzyl-3,4-methylenedioxybenzenes in insect population control” (The United States of America as represented by the …, priority 1979, dated 1982).
